Experimental data from ChEMBL document CHEMBL1201862, “PubChem BioAssay data set” (2004).
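Briefly, cells in 96-well plates were exposed to five compound concentrations for 48 h, and endpoints were estimated by linear interpolation. GI50 = concentration required for 50% inhibition of growth.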 Calls of active or inactive are those of the source. No stated cut-off is given here; in the data, active = GI50 up to about 1.1 µM and inactive = higher.

Assays:
Test in all cases: inhibition of tumour cell growth, NCI panel, 48 h
K562 = test system: K562
UACC-257 = test system: UACC-257
UO-31 = test system: UO-31
Hs-578T = test system: Hs-578T
RPMI-8226 = test system: RPMI-8226
NCI/ADR-RES = test system: NCI/ADR-RES
M14 = test system: M14
MOLT-4 = test system: MOLT-4
LOX IMVI = test system: LOX IMVI
NCI-H522 = test system: NCI-H522
A498 = test system: A498
SK-MEL-5 = test system: SK-MEL-5
SF-295 = test system: SF-295
SN12C = test system: SN12C
CCRF-CEM = test system: CCRF-CEM
SF-268 = test system: SF-268
HCC 2998 = test system: HCC 2998
U-251 = test system: U-251
T47D = test system: T47D
HOP-92 = test system: HOP-92

Row | SMILES | GI50 (K562) | GI50 (UACC-257) | GI50 (UO-31) | GI50 (Hs-578T) | GI50 (RPMI-8226) | GI50 (NCI/ADR-RES) | GI50 (M14) | GI50 (MOLT-4) | GI50 (LOX IMVI) | GI50 (NCI-H522) | GI50 (A498) | GI50 (SK-MEL-5) | GI50 (SF-295) | GI50 (SN12C) | GI50 (CCRF-CEM) | GI50 (SF-268) | GI50 (HCC 2998) | GI50 (U-251) | GI50 (T47D) | GI50 (HOP-92)
1 | OC(C#Cc1ccccc1)(c1ccccc1)c1ccccc1 | 34.3 µM (inactive) | 24.5 µM (inactive) | 40.8 µM (inactive) | 54.8 µM (inactive) | 16.4 µM (inactive) | 36.6 µM (inactive) | > 100 µM (inactive) | 47.6 µM (inactive) | 19 µM (inactive) | 30.9 µM (inactive) | 27.1 µM (inactive) | 19 µM (inactive) | 30.3 µM (inactive) | 69.8 µM (inactive) | 11.6 µM (inactive) | 21.4 µM (inactive) | 50.6 µM (inactive) | 26.7 µM (inactive) | 18.9 µM (inactive) | 
2 | NC(CSC(c1ccccc1)(c1ccccc1)c1ccccc1)C(=O)O (stereo not given) | 0.509 µM (active) | 1.84 µM (inactive) | 18.5 µM (inactive) | 1.61 µM (inactive) | 0.569 µM (active) | 6.67 µM (inactive) | 0.538 µM (active) | 1.24 µM (inactive) | 0.802 µM (active) | 0.59 µM (active) | 1.51 µM (inactive) | 0.69 µM (active) |  | 1.27 µM (inactive) | 0.583 µM (active) | 1.27 µM (inactive) | 0.716 µM (active) | 0.69 µM (active) | 0.684 µM (active) | 7.31 µM (inactive)
3 | Cc1cc(-c2nc3cc(F)ccc3s2)ccc1NC(=O)C(C)N (stereo not given) | 5.62 µM (inactive) | 4.31 µM (inactive) | 3.7 µM (inactive) | 4.95 µM (inactive) | 5.89 µM (inactive) | 4.79 µM (inactive) | 4.93 µM (inactive) | 3.33 µM (inactive) | 4.42 µM (inactive) | 4.09 µM (inactive) | 3.77 µM (inactive) | 9.84 µM (inactive) | 3.82 µM (inactive) | 4.32 µM (inactive) | 0.64 µM (active) | 4.53 µM (inactive) | 0.097 µM (active) | 4.36 µM (inactive) | 0.0847 µM (active) | 3.97 µM (inactive)
4 | Clc1cc(Cl)cc(/N=C/C=C/Nc2cc(Cl)cc(Cl)c2)c1 | 23.6 µM (inactive) | 33.7 µM (inactive) | 23.4 µM (inactive) | 19.1 µM (inactive) | 24.5 µM (inactive) | 16.4 µM (inactive) | 22.3 µM (inactive) | 19.8 µM (inactive) |  | 14.7 µM (inactive) | 21 µM (inactive) | 15.1 µM (inactive) | 23 µM (inactive) | 17.4 µM (inactive) | 20.8 µM (inactive) | 18.9 µM (inactive) | 15.2 µM (inactive) | 17.6 µM (inactive) | 22.9 µM (inactive) | 30.8 µM (inactive)
5 | Cc1cc2c(cc1Cl)SC(NNC(=O)c1ccccc1)=NS2(=O)=O | > 10 µM (inactive) | > 10 µM (inactive) |  | > 10 µM (inactive) | > 10 µM (inactive) | > 10 µM (inactive) | > 10 µM (inactive) | > 10 µM (inactive) | > 10 µM (inactive) | > 10 µM (inactive) | > 10 µM (inactive) | > 10 µM (inactive) | > 10 µM (inactive) | > 10 µM (inactive) | > 10 µM (inactive) | > 10 µM (inactive) | > 10 µM (inactive) | > 10 µM (inactive) | > 10 µM (inactive) | 
6 | O=S(=O)(c1ccccc1)C1CN(Cc2ccccc2)CCN(Cc2ccccc2)C1 | 5.97 µM (inactive) | 26.6 µM (inactive) | 19.3 µM (inactive) | 37.2 µM (inactive) | 4.55 µM (inactive) | 17.9 µM (inactive) | 24.2 µM (inactive) | 7.24 µM (inactive) | 6.25 µM (inactive) | 8 µM (inactive) | > 100 µM (inactive) | 18.6 µM (inactive) | 73.8 µM (inactive) | 32.4 µM (inactive) | 5.14 µM (inactive) | 29.4 µM (inactive) | > 78 µM (inactive) | 33 µM (inactive) | 30 µM (inactive) | 
7 | O=C1/C(=C/c2ccccc2)CCCC1CN1CCCCC1 (stereo not given) |  | 6.07 µM (inactive) | 1.88 µM (inactive) | 2.94 µM (inactive) | > 100 µM (inactive) | 3.24 µM (inactive) | 1.89 µM (inactive) | 1.43 µM (inactive) | 1.65 µM (inactive) | 0.242 µM (active) | 16.7 µM (inactive) | 4.31 µM (inactive) | 19.1 µM (inactive) | 5.9 µM (inactive) |  | 1.78 µM (inactive) | 15.6 µM (inactive) | 13.3 µM (inactive) | 1.77 µM (inactive) | 2.24 µM (inactive)
8 | COc1ccc(NC(=O)CC(=O)n2nc(-c3ccccc3)c(/N=N/c3ccc(C)cc3)c2-c2ccccc2)cc1 | > 85.3 µM (inactive) | 57.8 µM (inactive) | 29.3 µM (inactive) | 16.6 µM (inactive) | 55.7 µM (inactive) | 25.7 µM (inactive) | 52.6 µM (inactive) | > 95.9 µM (inactive) | 38.8 µM (inactive) | 29 µM (inactive) | > 49.3 µM (inactive) | > 65.2 µM (inactive) | 23.8 µM (inactive) | 38 µM (inactive) | > 84.7 µM (inactive) | 21.6 µM (inactive) | 62.8 µM (inactive) | 20.8 µM (inactive) | 36.1 µM (inactive) | 16.8 µM (inactive)
9 | O=C(CCC(C(=O)OCc1ccccc1)C(=O)OCc1ccccc1)Nc1ccc(OCc2ccccc2)cc1 | > 100 µM (inactive) | > 100 µM (inactive) | > 100 µM (inactive) | 52.7 µM (inactive) |  | 60.4 µM (inactive) | > 100 µM (inactive) | 55.6 µM (inactive) | > 100 µM (inactive) | > 100 µM (inactive) | 21 µM (inactive) |  | > 100 µM (inactive) | > 100 µM (inactive) | 47.5 µM (inactive) | > 100 µM (inactive) | > 100 µM (inactive) | 38.3 µM (inactive) | 91.6 µM (inactive) | > 100 µM (inactive)
10 | O=C(O)[C@@H]1C[C@@H](O)CN1C(=O)OCc1ccccc1 | > 100 µM (inactive) | > 100 µM (inactive) | > 100 µM (inactive) | > 100 µM (inactive) | > 100 µM (inactive) | > 100 µM (inactive) | > 100 µM (inactive) | > 100 µM (inactive) | > 100 µM (inactive) | > 100 µM (inactive) | > 100 µM (inactive) | > 100 µM (inactive) | > 100 µM (inactive) | > 100 µM (inactive) | > 100 µM (inactive) | > 100 µM (inactive) | > 100 µM (inactive) | > 100 µM (inactive) | > 100 µM (inactive) | > 100 µM (inactive)
11 | CCCCCCCCCCCCCCCCCCOCC(CO[PH](=O)O)OCCCCCCCCCCCCCCCCCC (stereo not given) | > 50 µM (inactive) | > 50 µM (inactive) |  | > 50 µM (inactive) | > 50 µM (inactive) | > 50 µM (inactive) | > 50 µM (inactive) | > 50 µM (inactive) | > 50 µM (inactive) | > 50 µM (inactive) | > 50 µM (inactive) | > 50 µM (inactive) |  | > 50 µM (inactive) |  | > 50 µM (inactive) | > 50 µM (inactive) | > 50 µM (inactive) | > 50 µM (inactive) | > 50 µM (inactive)
12 | COC(=O)c1cccc(C)c1C1CN=NC12Cc1cc(C)cc(C)c1C2=O (stereo not given) | 26.4 µM (inactive) | > 100 µM (inactive) | 55.1 µM (inactive) | 47 µM (inactive) | 33.5 µM (inactive) | 23.1 µM (inactive) | 34.8 µM (inactive) | 27 µM (inactive) | > 100 µM (inactive) | 31.3 µM (inactive) | 51.5 µM (inactive) | 31.6 µM (inactive) |  | 37.2 µM (inactive) | 28.4 µM (inactive) | 39.8 µM (inactive) | 26.5 µM (inactive) | 54.7 µM (inactive) | 23.2 µM (inactive) | 47.8 µM (inactive)
13 | O=c1c2ccccc2oc2c1ccc1ncccc12 | 24.7 µM (inactive) | 20.7 µM (inactive) | 5.93 µM (inactive) | 11.9 µM (inactive) | 15.4 µM (inactive) | 10.4 µM (inactive) |  | 3.08 µM (inactive) | 5.24 µM (inactive) | 12.7 µM (inactive) | 5.01 µM (inactive) | 11.5 µM (inactive) | 12.9 µM (inactive) | 10.6 µM (inactive) | 11.1 µM (inactive) | 17.2 µM (inactive) | 30.4 µM (inactive) |  | 12.1 µM (inactive) | 5.53 µM (inactive)
14 | COc1cc(O)c(C(C)=O)c(O)c1 | 18.7 µM (inactive) | > 100 µM (inactive) | 59.6 µM (inactive) | 62.7 µM (inactive) |  | > 100 µM (inactive) | 86.9 µM (inactive) |  | 75.9 µM (inactive) | 43.1 µM (inactive) | 80.5 µM (inactive) | 35.3 µM (inactive) | 92.5 µM (inactive) | 59 µM (inactive) |  | 69.8 µM (inactive) | > 100 µM (inactive) | 63.8 µM (inactive) | 25.6 µM (inactive) | 25 µM (inactive)
15 | O=C(CCCCCCC(=O)Nc1cccnc1)NO [PYROXAMIDE] | 4.26 µM (inactive) | 4.75 µM (inactive) | 6.5 µM (inactive) | 5.15 µM (inactive) | 3.14 µM (inactive) | 1.81 µM (inactive) | 4.45 µM (inactive) | 2.2 µM (inactive) | 7.29 µM (inactive) | 1.26 µM (inactive) | 11 µM (inactive) | 1.21 µM (inactive) | 21.2 µM (inactive) |  | 1.31 µM (inactive) | 4.26 µM (inactive) | 4.61 µM (inactive) | 4.76 µM (inactive) | 1.47 µM (inactive) | 12.8 µM (inactive)
